Experimental data reported in patent publication US20090045056A1, “Stable three enzyme creatinine biosensor” (priority 2004, published 2009).

Tests used:
[1] = biological target: T1, sarcosine oxidase (Bacillus sp., UniProt P40859); conditions: cited from earlier work; for Ki: inhibitor of sarcosine oxidase
T1 sequence (P40859 1-390): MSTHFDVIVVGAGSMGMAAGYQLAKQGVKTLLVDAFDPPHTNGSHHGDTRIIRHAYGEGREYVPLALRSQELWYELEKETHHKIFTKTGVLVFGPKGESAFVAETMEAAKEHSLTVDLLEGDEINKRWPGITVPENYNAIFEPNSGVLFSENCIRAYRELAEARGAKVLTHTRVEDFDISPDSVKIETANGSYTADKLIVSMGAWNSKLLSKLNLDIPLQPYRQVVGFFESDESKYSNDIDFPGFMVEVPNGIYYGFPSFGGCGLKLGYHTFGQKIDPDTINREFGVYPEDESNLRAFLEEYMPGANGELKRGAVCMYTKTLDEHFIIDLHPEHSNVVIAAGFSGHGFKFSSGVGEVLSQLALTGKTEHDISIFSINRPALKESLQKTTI

[2] = test system: creatine amidinohydrolase; test: Additives to prevent silver inhibition of creatine amidinohydrolase; format: biochemical, Actinobacilus sp.; conditions: 50 mM additive, pre-incubation
Protocol: Creatine amidinohydrolase (1.0 mg/ml) was prepared in solution with either 50 mM EDT A, 50 mM EGT A, 50 mM mercaptoethanol, 50 mM DTT or 50 mM cysteine with 20 mM Tris, pH 7.5.

[3] = test system: creatine amidinohydrolase; conditions: 5-100 μM silver nitrate
Protocol: Creatine amidinohydrolase activity was monitored using a colorimetric assay that measures urea formation from the hydrolysis of creatine (Tsuchida and Yoda, Clin. Chem. 29:51-55 (1983)). An enzyme solution (0.1 mL) was incubated with a mixture (0.90 mL) of 100 mM creatine in sodium phosphate buffer (50 mM, pH 7.5) at 37° C. for 10 minutes. The reaction was stopped by adding 2.0 mL of a solution containing Ehrlich's reagent (2.0 g of p-dimethyl aminobenzaldehyde in 100 mL of dimethyl sulfoxide plus 15 mL of concentrated HCl). The solution was incubated for 20 minutes at room temperature and the absorbance at 435 nm was measured. One unit was defined as the amount of enzyme that catalyzes the hydrolysis of 1 μmol of substrate per minute.
Samples were removed periodically and assayed using the end point assay. […] After 10 minutes of incubation, the stop solution (p-dimethyl benzaldehyde solution) was added.

[4] = test system: creatinine amidohydrolase; conditions: silver nitrate from 1 nM, 5 min to 1 hr incubation
Protocol: An enzyme solution (0.1 mL) was incubated with a mixture (0.90 mL) of 100 mM creatine in mM soditim phosphate (pH 7.5) at 37° C. for 10 minutes. After 10 minutes, the creatine/enzyme mixture (0.1 mL) was added to 0.5 M sodium hydroxide (1.9 mL) and 1% picric acid (1.0 mL). This solution was incubated for 20 minutes at room temperature and the absorbance at 520 nm was measured. One unit was defined as the amount of enzyme which catalyzed the formation of 1 μmol of creatinine per minute.
Samples were removed periodically and assayed using the end point assay.

[5] = biological target: sarcosine oxidase (Arthrobacter sp., UniProt P40873); conditions: 1 nM to 1 mM silver nitrate, various incubation times, residual activity assayed in absence of silver
Sequence of sarcosine oxidase (Arthrobacter sp., UniProt P40873) (P40873 whole entry): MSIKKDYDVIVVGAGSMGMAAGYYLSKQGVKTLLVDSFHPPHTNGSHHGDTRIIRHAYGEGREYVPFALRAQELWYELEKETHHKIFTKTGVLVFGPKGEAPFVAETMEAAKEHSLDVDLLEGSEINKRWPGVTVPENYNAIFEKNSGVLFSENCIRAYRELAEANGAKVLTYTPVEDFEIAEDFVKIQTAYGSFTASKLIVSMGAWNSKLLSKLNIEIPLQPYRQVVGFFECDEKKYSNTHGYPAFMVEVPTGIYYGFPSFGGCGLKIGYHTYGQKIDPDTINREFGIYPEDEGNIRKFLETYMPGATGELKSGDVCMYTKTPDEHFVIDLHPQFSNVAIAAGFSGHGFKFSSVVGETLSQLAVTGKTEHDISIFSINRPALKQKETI
Protocol: Typically, an enzyme solution (0.05 mL) was incubated with a mixture (1.0 mL total) of 95 mM sarcosine, 0.47 mM 4-aminoantipyrene, 2 mM phenol, 0.045% Triton X-100, 50 mM sodium phosphate (pH 8.0) and 5 units/mL of horseradish peroxidase at 37° C. for 10 minutes. The reaction was terminated by addition of 2.0 mL of 0.25% SDS solution and the absorbance at 500 nm was measured. One unit was defined as the amount of enzyme that catalyzed the oxidation of 1). mol of substrate per minute.
Samples were removed periodically and assayed using the end point assay for sarcosine oxidase activity.

Structure (SMILES): CSCC(=O)O [(methylthio)acetic acid]
- Ki [1]: 2600 µM

Structure (SMILES): O[C@@H](CS)[C@@H](O)CS [DTT]
- prevention of silver inhibition of creatine amidinohydrolase [2]: effectively prevented

Structure (SMILES): O=C(O)c1ccc[nH]1 [Pyrrole-2-carboxylic acid]
- Ki [1]: 1370 µM

Structure (SMILES): N[C@@H](CS)C(=O)O [cysteine]
- prevention of silver inhibition of creatine amidinohydrolase [2]: effectively prevented

Structure (SMILES): OCCS [mercaptoethanol]
- prevention of silver inhibition of creatine amidinohydrolase [2]: effectively prevented

Structure (SMILES): CNCC(=O)O [sarcosine]
- Km ([1]; native substrate of sarcosine oxidase): 600 µM

Structure (SMILES): O=[N+]([O-])[O-].[Ag+] [silver nitrate]
- inhibition of creatine amidinohydrolase by silver ions [3]: completely inhibiting enzyme activity
- inhibition of creatinine amidohydrolase by silver ions [4]: effective inhibitor of creatinine amidinohydrolase at high concentrations
- inhibition of sarcosine oxidase by silver ions [5]: effective irreversible inhibitor
